Activity calls are given as the source filed them. The rule behind the calls is not given here.

One data set has as its system MDA-MB-231. The data set can be described thus: Antiproliferative activity against human MDA-MB-231 cells after 48 hrs by MTT assay. The conditions noted are these: MDA-MB-231, 48 h. (Formazan colour is commonly taken as a measure of viable cells.)
The test system of a further data set is LoVo. Briefly: Antiproliferative activity against human LoVo cells after 48 hrs by MTT assay.
For another data set, the system named is RKO. Briefly: Antiproliferative activity against human RKO cells after 48 hrs by MTT assay.
The subject of data set [1] is A549. The data set can be described thus: cells. Conditions: Homo sapiens, A549, 48 h.
The subject of a further data set is HepG2. The data set can be described thus: cells. Conditions: Homo sapiens, HepG2, 48 h.
The subject of data set [2] is A549. The data set can be described thus: Antitumor activity against human A549 cells xenografted in BALB/c nude mouse assessed as tumor growth inhibition at 30 mg/kg, ip. Type of data set: functional. Conditions: read-out: TGI.
The next data set deals with MGC-803. Briefly: Antiproliferative activity against human MGC803 cells after 48 hrs by MTT assay. Conditions: MGC-803, 48 h.
The subject of another data set is A549/CDDP. The data set can be described thus: Antiproliferative activity against human A549/CDDP cells after 48 hrs by MTT assay. Type of data set: functional, cell-based.
Data set [3] is described as follows: Antiproliferative activity against human HepG2/DOX cells after 48 hrs by MTT assay. Type of data set: functional, cell-based.
Data set [4] is described as follows: Resistance index, ratio of IC50 for human A549/CDDP cells to IC50 for human A549 cells. Type of data set: functional.
Data set [5] is described as follows: Resistance index, ratio of IC50 for human HepG2/DOX cells to IC50 for human HepG2 cells. Type of data set: functional.
Data set [6] is described as follows: Metabolic stability in Sprague-Dawley rat liver microsomes assessed as compound remaining after 30 mins in presence of NADPH by UV-based HPLC-MS/MS analysis. Type of data set: ADME, microsome. Conditions: read-out: Stability.
Data set [7] in a line: Metabolic stability in Sprague-Dawley rat liver microsomes assessed as compound remaining after 60 mins in presence of NADPH by UV-based HPLC-MS/MS analysis. Type of data set: ADME, microsome. The conditions noted are these: read-out: Stability. For orientation: Liver microsomes are a subcellular fraction often used to study metabolism.
Data set [8] can be described thus: Metabolic stability in Sprague-Dawley rat liver microsomes assessed as compound remaining after 90 mins in presence of NADPH by UV-based HPLC-MS/MS analysis. Type of data set: ADME, microsome. Conditions: read-out: Stability.
Data set [9] can be described thus: Metabolic stability in Sprague-Dawley rat liver microsomes assessed as compound remaining after 120 mins in presence of NADPH by UV-based HPLC-MS/MS analysis. Type of data set: ADME, microsome. The conditions noted are these: read-out: Stability.
Data set [10] is described as follows: (§1) Metabolic stability in Sprague-Dawley rat liver microsomes assessed as compound remaining after 150 mins in presence of NADPH by UV-based HPLC-MS/MS analysis. Type of data set: ADME, microsome. The conditions noted are these: Sprague-Dawley, liver microsomes, read-out: Stability.
A short description of data set [11]: Half life in Sprague-Dawley rat by UV-based HPLC-MS/MS analysis. Conditions: in vivo. It is filed as ADME.
A short description of data set [12]: Inhibition of porcine brain tubulin polymerization measured every 60 seconds for 90 mins by DAPI staining-based fluorescence assay. Further details: species or system Sus scrofa.
The subject of data set [13] is A549. The data set can be described thus: Induction of microtubule disruption in human A549 cells at 5 to 10 nM after 8 to 24 hrs by Hoechst 33342 staining-based laser scanning confocal immunofluorescence microscopic analysis. Type of data set: cell-based.
The test system of a further data set is MCF7. Briefly: cells. Conditions: Homo sapiens, MCF7, 48 h.
A further data set relates to HeLa. The data set can be described thus: cells. Conditions: Homo sapiens, 48 h.
For the next data set, the system named is HCT-116. The data set can be described thus: cells. The conditions noted are these: Homo sapiens, HCT-116, 48 h.
The test system of a further data set is A2780. Briefly: cells. The conditions noted are these: Homo sapiens, A2780, 48 h.
For a further data set, the system named is Mus musculus. Briefly: Toxicity in BALB/c nude mouse xenografted with human A549 cells assessed as change in body weight at 30 mg/kg, ip. Conditions: in vivo. It is filed as organism-based. Background: Xenograft models place foreign cells or tissue in a host animal.
The test system of the next data set is Liver. The description is as §1. It is filed as ADME, microsome. Conditions: microsomes, 2.5 h.

Description for A2780: Antiproliferative activity against human A2780 cells after 48 hrs by MTT assay

By IC50 is commonly meant the concentration that inhibits the measured activity by half. A high value points to weaker potency in that assay. As for `C=C(c1ccc([Se]C)cc1)c1cc(OC)c(OC)c(OC)c1`, the IC50 is 178 nM in the data set with MDA-MB-231; 279 nM in the data set with LoVo; 216 nM in the data set with RKO; 97 nM in the data set with A549 [1]; 386 nM with HepG2.
For the compound `COc1ccc(/C=C\c2cc(OC)c(OC)c(OC)c2)cc1OP(=O)(O)O` [FOSBRETABULIN DISODIUM], the inhibition in vivo at 30 mg/kg with A549 [2] was found to be 47.6%.
Usually half-life stands for how long it takes for the measured level to halve. Read a high half-life as slow loss. Consider `C=C(c1ccc(OC)c(O)c1)c1cc(OC)c(OC)c(OC)c1`, for which the IC50 was 8.5 nM with MDA-MB-231; 3.7 nM with LoVo; 3.8 nM in the data set with RKO; 19.8 nM with MGC-803; 69.1 nM with A549/CDDP; 38.6 nM in data set [3]. The IC50 is 2760 nM in data set [12]; 3.5 nM with A549 [1]; 18.3 nM with HepG2; 48 nM in the data set with MCF7; 6 nM with HeLa; 24 nM with HCT-116. In the data set on A2780, the half-inhibitory concentration (IC50) was determined as 26 nM. Also, the “Ratio IC50” value is 19.7 in data set [4] and 2.1 in data set [5]. The remaining at 0.5 h in data set [6] was found to be 85.7%. Further, in data set [7], the remaining at 1 h worked out at 77.1%. In addition, in [8], the remaining at 1.5 h amounted to 67.3%. The remaining at 2 h in [9] was found to be 49.8%. Further, the remaining at 2.5 h in [10] amounted to 34.3%. Also, the half-life in [11] amounted to 1.7 h. Also, the result in the data set on A549 [13] was Active.
Regarding `COc1ccc(C(=O)c2cc(OC)c(OC)c([Se]C)c2)cc1`, the IC50 in the data set on MDA-MB-231 came to 57 nM; in the data set on LoVo it was 145 nM; in the data set on RKO, 47 nM; in the data set on A549 [1], 31 nM; in the data set on HepG2, 85 nM.
Consider `C=C(c1ccc(OC)c(F)c1)c1cc(OC)c(OC)c([Se]C)c1`, for which the 50% inhibitory concentration (IC50) was found to be 24 nM in the data set on MDA-MB-231; 33 nM with LoVo; 82 nM with RKO; 29 nM in the data set on A549 [1]; 87 nM with HepG2.
As to `C=C(c1ccc(OC)c(OP(=O)(O)O)c1)c1cc(OC)c(OC)c(OC)c1`, the inhibition in vivo at 30 mg/kg in the data set on A549 [2] worked out at 52.2%.
With `C=C(c1ccc(OC)c(Br)c1)c1cc(OC)c(OC)c([Se]C)c1`, the IC50 was 667 nM in the data set with MDA-MB-231; 171 nM in the data set with LoVo; 343 nM in the data set on RKO; 236 nM in the data set with A549 [1]; 691 nM in the data set with HepG2.
On the same counts, the results for `COc1cc(C(=O)c2cc(OC)c(OC)c([Se]C)c2)cc(OC)c1OC` are 741 nM, 921 nM, 235 nM, 172 nM and 288 nM.
On the same counts, the results for `C=C(c1ccc(OC)c(Cl)c1)c1cc(OC)c(OC)c([Se]C)c1` are 83 nM, 254 nM, 451 nM, 196 nM and 298 nM.
As for `C=C(c1ccc(OC)c(C)c1)c1cc(OC)c(OC)c([Se]C)c1`, the IC50 in the data set with MDA-MB-231 turned out to be 599 nM; in the data set with LoVo it was 496 nM; in the data set on RKO, 245 nM; in the data set on A549 [1], 141 nM; in the data set with HepG2, 607 nM.
On the same counts, the results for `COc1cc(C(=O)c2ccc(OC)c(OC)c2OC)cc([Se]C)c1OC` are 4260 nM, 523 nM, 874 nM, 2750 nM and 4340 nM.
On the same counts, the results for `C=C(c1cc(OC)c(OC)c([Se]C)c1)c1ccc(OC)c(OC)c1OC` are 3820 nM, 128 nM, 1040 nM, 1380 nM and 6300 nM.
In the same order, the values of `COc1cc(C(=O)c2ccc([Se]C)cc2)cc(OC)c1OC` are 65 nM, 296 nM, 66 nM, 69 nM and 77 nM.
In the case of `COc1ccc(C(=O)c2cc(OC)c(OC)c([Se]C)c2)cc1OC`, the IC50 stood at 1020 nM in the data set on MDA-MB-231; 766 nM with LoVo; 306 nM in the data set with RKO; 285 nM in the data set on A549 [1]; 1090 nM in the data set with HepG2.
With `C=C(c1ccc(OC)c(OP(=O)([O-])[O-])c1)c1cc(OC)c(OC)c([Se]C)c1.[Na+].[Na+]`, the inhibition in vivo at 30 mg/kg in the data set with A549 [2] was 72.9%. Further, the Activity result in the data set with Mus musculus is recorded as “Non-Toxic”.
`C=C(c1cc(OC)c(OC)c(OC)c1)c1cc(OC)c(OC)c([Se]C)c1`: the IC50 in the data set on MDA-MB-231 came out at 3320 nM; in the data set on LoVo, 3140 nM; with RKO, 3520 nM; in the data set on A549 [1], 473 nM; with HepG2, 1350 nM.
In the same order, the values of `C=C(c1ccc(OC)cc1)c1cc(OC)c(OC)c([Se]C)c1` are 96 nM, 91 nM, 107 nM, 72 nM and 126 nM.
On the same counts, the results for `COc1ccc(C(=O)c2cc(OC)c(OC)c([Se]C)c2)cc1C` are 997 nM, 3150 nM, 5280 nM, 1730 nM and 2300 nM.
Regarding `COc1ccc(C(=O)c2cc(OC)c(OC)c([Se]C)c2)cc1Cl`, the IC50 in the data set on MDA-MB-231 worked out at 865 nM; in the data set on LoVo it was 189 nM; in the data set on RKO, 253 nM; in the data set on A549 [1], 949 nM; in the data set on HepG2, 1530 nM.
In the same order, the values of `COc1ccc(C(=O)c2cc(OC)c(OC)c([Se]C)c2)cc1Br` are 435 nM, 1750 nM, 169 nM, 368 nM and 655 nM.
On the same counts, the results for `COc1ccc(C(=O)c2cc(OC)c(OC)c([Se]C)c2)cc1O` are 24 nM, 53 nM, 79 nM, 55 nM and 31 nM.
Turning to `COc1ccc(/C=C\c2cc(OC)c(OC)c(OC)c2)cc1O` [COMBRETASTATIN A4], the remaining at 0.5 h in data set [6] stood at 67.2%. Further, in [7], the remaining at 1 h worked out at 26.4%. Moreover, in [8], the remaining at 1.5 h is 22.5%. In addition, the remaining at 2 h in data set [9] came out at 19.9%. Besides, the Stability result in the data set on Liver is listed as “Nd(Unstable)”.
Regarding `COc1ccc(C(=O)c2cc(OC)c(OC)c(OC)c2)cc1O` [PHENSTATIN], the IC50 in the data set on MDA-MB-231 was 62 nM; in the data set with LoVo, 122 nM; in the data set on RKO it was 72 nM; in the data set with A549 [1], 179 nM; in the data set on HepG2, 108 nM.
In the same order, the values of `COc1ccc(C(=O)c2cc(OC)c(OC)c([Se]C)c2)cc1F` are 34 nM, 57 nM, 59 nM, 33 nM and 47 nM.
In the same order, the values of `C=C(c1ccc(OC)c(OC)c1)c1cc(OC)c(OC)c([Se]C)c1` are 344 nM, 299 nM, 216 nM, 265 nM and 473 nM.

The record behind these values is ChEMBL document CHEMBL4038345, “Design, Synthesis, and Biological Evaluation of Novel Selenium-Containing Isocombretastatins and Phenstatins as Antitumor Agents” (J Med Chem, 2017).
